# Measurements taken from PMC6257473, “Artificial Self-Sufficient P450 in Reversed Micelles” (Molecules, 2010).
# Molecular target: T1, A. pernix ADH (Aeropyrum pernix, UniProt Q9Y9P9)
# T1 construct: heat treatment, DEAE Sepharose and Superdex 200
# T1 sequence (Q9Y9P9 1-344): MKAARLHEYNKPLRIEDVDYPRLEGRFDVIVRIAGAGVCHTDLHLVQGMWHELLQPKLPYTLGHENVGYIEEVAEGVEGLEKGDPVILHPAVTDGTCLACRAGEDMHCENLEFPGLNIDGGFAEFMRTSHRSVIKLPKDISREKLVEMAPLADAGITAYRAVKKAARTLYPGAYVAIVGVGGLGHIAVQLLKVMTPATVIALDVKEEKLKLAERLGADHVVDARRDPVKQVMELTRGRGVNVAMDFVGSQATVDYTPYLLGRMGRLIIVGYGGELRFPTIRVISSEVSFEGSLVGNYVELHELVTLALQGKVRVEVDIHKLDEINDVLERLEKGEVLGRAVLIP
# Assay: NADH formation, initial rate
# Format: biochemical
# Settings: 70 μM NAD+, 25 °C
SMILES,"NADH formation, initial rate (CTAB/2-pentanol/isooctane reversed micelles, W0 16.7, 2-pentanol as co-substrate)","NADH formation, initial rate (aqueous, 50 mM potassium phosphate pH 7.4, 150 mM KCl, 1.2 μM enzyme, substrate activation)"
NC(=O)c1ccc[n+]([C@@H]2O[C@H](COP(=O)(O)OP(=O)(O)OC[C@H]3O[C@@H](n4cnc5c(N)ncnc54)[C@H](O)[C@@H]3O)[C@@H](O)[C@H]2O)c1 [NAD^+],A. pernix ADH showed NAD^+ reduction activity in a CTAB/2-pentanol/isooctane reversed micellar system,
CCCC(C)O (centres unmarked) [2-pentanol],,substrate activation was also observed when using 2-pentanol as a substrate in water
